Test results: ChEMBL document CHEMBL1156276, “Solvent free synthesis, anti-inflammatory and anticancer activity evaluation of tricyclic and tetracyclic benzimidazole derivatives” (2010)
Where a name gives a salt, the structure may show the parent alone.

How the values were obtained:
Type in all cases: functional
PC-3 = experiment: Anticancer activity against human PC3 cells assessed as cell growth inhibition at 10 uM after 48 hrs by SRB assay; conditions: PC-3, 48 h, read-out: GI
SF-295 = experiment: Anticancer activity against human SF295 cells assessed as cell growth inhibition at 10 uM after 48 hrs by SRB assay; conditions: SF-295, 48 h, read-out: GI
HOP-62 = experiment: Anticancer activity against human HOP62 cells assessed as cell growth inhibition at 10 uM after 48 hrs by SRB assay; conditions: HOP-62, 48 h, read-out: GI
IGROV-1 = experiment: Anticancer activity against human IGROV1 cells assessed as cell growth inhibition at 10 uM after 48 hrs by SRB assay; conditions: IGROV-1, 48 h, read-out: GI
A549 = experiment: Anticancer activity against human A549 cells assessed as cell growth inhibition at 10 uM after 48 hrs by SRB assay; conditions: A549, 48 h, read-out: GI
MCF7 = experiment: Anticancer activity against human MCF7 cells assessed as cell growth inhibition at 10 uM after 48 hrs by SRB assay; conditions: MCF7, 48 h, read-out: GI
Rattus norvegicus = experiment: Antiinflammatory activity against carrageenan-induced paw edema in rat assessed as paw volume at 50 mg/kg, po administered 30 mins before carrageenan challenge measured after 1 to 3 hrs by water plethysmometer relative to control

Question: What does the source list for `Cc1cc2[nH]c3cc4ccccc4c(=O)n3c2cc1C`?
Answer: inhibition of growth at 10 µM (PC-3): 39%; inhibition of growth at 10 µM (SF-295): 13%; inhibition of growth at 10 µM (HOP-62): 0%; inhibition of growth at 10 µM (IGROV-1): 7%; inhibition of growth at 10 µM (A549): 41%; inhibition of growth at 10 µM (MCF7): 22%; Activity (Rattus norvegicus): 29.6%

Question: What does the source list for `O=c1c2ccccc2cc2[nH]c3cccc(O)c3n12`?
Answer: inhibition of growth at 10 µM (PC-3): 13%; inhibition of growth at 10 µM (SF-295): 55%; inhibition of growth at 10 µM (HOP-62): 0%; inhibition of growth at 10 µM (IGROV-1): 15%; inhibition of growth at 10 µM (A549): 0%; inhibition of growth at 10 µM (MCF7): 20%; Activity (Rattus norvegicus): 31.8%

Question: For `O=C1c2nccnc2C2=NC3CCCCC3N12` (configuration not stated), which inhibition of growth at 10 µM (PC-3) is on record?
Answer: 15%

Question: And the inhibition of growth at 10 µM (SF-295)?
Answer: 37%

Question: And the inhibition of growth at 10 µM (HOP-62)?
Answer: 6%

Question: What about the inhibition of growth at 10 µM (IGROV-1) of the same molecule?
Answer: 28%

Question: What about the inhibition of growth at 10 µM (A549) of the same molecule?
Answer: 10%

Question: And the inhibition of growth at 10 µM (MCF7)?
Answer: 48%

Question: And the Activity (Rattus norvegicus)?
Answer: 25.6%

Question: What does the source list for `Cc1cc2nc3n(c2cc1C)C(=O)c1nccnc1-3`?
Answer: inhibition of growth at 10 µM (PC-3): 39%; inhibition of growth at 10 µM (SF-295): 13%; inhibition of growth at 10 µM (HOP-62): 0%; inhibition of growth at 10 µM (IGROV-1): 7%; inhibition of growth at 10 µM (A549): 25%; inhibition of growth at 10 µM (MCF7): 22%; Activity (Rattus norvegicus): 15.9%

Question: Which results are given for `O=C1c2nccnc2C2=Nc3ccccc3CN12`?
Answer: inhibition of growth at 10 µM (PC-3): 46%; inhibition of growth at 10 µM (SF-295): 66%; inhibition of growth at 10 µM (HOP-62): 23%; inhibition of growth at 10 µM (IGROV-1): 55%; inhibition of growth at 10 µM (A549): 48%; inhibition of growth at 10 µM (MCF7): 56%; Activity (Rattus norvegicus): 28.6%

Question: Which results are given for `O=C1c2nccnc2-c2nc3ccccc3n21`?
Answer: inhibition of growth at 10 µM (PC-3): 13%; inhibition of growth at 10 µM (SF-295): 25%; inhibition of growth at 10 µM (HOP-62): 10%; inhibition of growth at 10 µM (IGROV-1): 15%; inhibition of growth at 10 µM (A549): 0%; inhibition of growth at 10 µM (MCF7): 20%; Activity (Rattus norvegicus): 10%

Question: With `O=C1CCC2=NC3CCCCC3N12` (configuration not stated) as the molecule, how does the inhibition of growth at 10 µM (PC-3) read?
Answer: 16%

Question: And the inhibition of growth at 10 µM (SF-295)?
Answer: 38%

Question: And the inhibition of growth at 10 µM (HOP-62)?
Answer: 0%

Question: What about the inhibition of growth at 10 µM (IGROV-1) of the same molecule?
Answer: 2%

Question: And the inhibition of growth at 10 µM (A549)?
Answer: 2%

Question: And the inhibition of growth at 10 µM (MCF7)?
Answer: 13%

Question: And the Activity (Rattus norvegicus)?
Answer: 19.7%

Question: What does the source list for `O=C1CCc2nc3cccc(O)c3n21`?
Answer: inhibition of growth at 10 µM (PC-3): 13%; inhibition of growth at 10 µM (SF-295): 53%; inhibition of growth at 10 µM (HOP-62): 9%; inhibition of growth at 10 µM (IGROV-1): 20%; inhibition of growth at 10 µM (A549): 0%; inhibition of growth at 10 µM (MCF7): 22%; Activity (Rattus norvegicus): 39.2%

Question: Which inhibition of growth at 10 µM (PC-3) does the source give for `O=C1CCc2nc3ccc(Br)cc3n21` here?
Answer: 40%

Question: And the inhibition of growth at 10 µM (SF-295)?
Answer: 0%

Question: What about the inhibition of growth at 10 µM (HOP-62) of the same molecule?
Answer: 16%

Question: And the inhibition of growth at 10 µM (IGROV-1)?
Answer: 50%

Question: And the inhibition of growth at 10 µM (A549)?
Answer: 12%

Question: And the inhibition of growth at 10 µM (MCF7)?
Answer: 31%

Question: What about the Activity (Rattus norvegicus) of the same molecule?
Answer: 10%

Question: With `O=C1CCc2nc3ccc([N+](=O)[O-])cc3n21` as the molecule, how does the inhibition of growth at 10 µM (PC-3) read?
Answer: 8%

Question: And the inhibition of growth at 10 µM (SF-295)?
Answer: 38%

Question: What about the inhibition of growth at 10 µM (HOP-62) of the same molecule?
Answer: 0%

Question: What about the inhibition of growth at 10 µM (IGROV-1) of the same molecule?
Answer: 0%

Question: What about the inhibition of growth at 10 µM (A549) of the same molecule?
Answer: 5%

Question: And the inhibition of growth at 10 µM (MCF7)?
Answer: 12%

Question: What about the Activity (Rattus norvegicus) of the same molecule?
Answer: 0%

Question: `N#Cc1ccc2nc3n(c2c1)C(=O)CC3` was tested. Which inhibition of growth at 10 µM (PC-3) did it give?
Answer: 3%

Question: And the inhibition of growth at 10 µM (SF-295)?
Answer: 52%

Question: What about the inhibition of growth at 10 µM (HOP-62) of the same molecule?
Answer: 0%

Question: What about the inhibition of growth at 10 µM (IGROV-1) of the same molecule?
Answer: 21%

Question: And the inhibition of growth at 10 µM (A549)?
Answer: 6%

Question: And the inhibition of growth at 10 µM (MCF7)?
Answer: 25%

Question: And the Activity (Rattus norvegicus)?
Answer: 9%

Question: Which results are given for `Cc1cccc2nc3n(c12)C(=O)CC3`?
Answer: inhibition of growth at 10 µM (PC-3): 14%; inhibition of growth at 10 µM (SF-295): 38%; inhibition of growth at 10 µM (HOP-62): 0%; inhibition of growth at 10 µM (IGROV-1): 3%; inhibition of growth at 10 µM (A549): 2%; inhibition of growth at 10 µM (MCF7): 8%; Activity (Rattus norvegicus): 29.9%

Question: `O=C1CCc2nc3ccc(Cl)cc3n21` was tested. Which inhibition of growth at 10 µM (PC-3) did it give?
Answer: 14%

Question: What about the inhibition of growth at 10 µM (SF-295) of the same molecule?
Answer: 37%

Question: What about the inhibition of growth at 10 µM (HOP-62) of the same molecule?
Answer: 11%

Question: And the inhibition of growth at 10 µM (IGROV-1)?
Answer: 0%

Question: And the inhibition of growth at 10 µM (A549)?
Answer: 3%

Question: And the inhibition of growth at 10 µM (MCF7)?
Answer: 52%

Question: And the Activity (Rattus norvegicus)?
Answer: 27.6%

Question: How did the inhibition of growth at 10 µM (PC-3) turn out when `O=c1c2ccccc2cc2n1C1CCCCC1N2` (configuration not stated) was run?
Answer: 6%

Question: What about the inhibition of growth at 10 µM (SF-295) of the same molecule?
Answer: 0%

Question: And the inhibition of growth at 10 µM (HOP-62)?
Answer: 12%

Question: And the inhibition of growth at 10 µM (IGROV-1)?
Answer: 28%

Question: And the inhibition of growth at 10 µM (A549)?
Answer: 10%

Question: And the inhibition of growth at 10 µM (MCF7)?
Answer: 6%

Question: What about the Activity (Rattus norvegicus) of the same molecule?
Answer: 34.7%

Question: Which inhibition of growth at 10 µM (PC-3) does the source give for `Cc1cc2nc3n(c2cc1C)C(=O)CC3` here?
Answer: 7%

Question: And the inhibition of growth at 10 µM (SF-295)?
Answer: 54%

Question: And the inhibition of growth at 10 µM (HOP-62)?
Answer: 4%

Question: And the inhibition of growth at 10 µM (IGROV-1)?
Answer: 26%

Question: What about the inhibition of growth at 10 µM (A549) of the same molecule?
Answer: 0%

Question: And the inhibition of growth at 10 µM (MCF7)?
Answer: 8%

Question: And the Activity (Rattus norvegicus)?
Answer: 39.4%

Question: Which results are given for `COc1cccc2c1C(=O)c1c(O)c3c(c(O)c1C2=O)C[C@@](O)(C(=O)CO)C[C@@H]3O[C@H]1C[C@H](N)[C@H](O)[C@H](C)O1` [DOXORUBICIN HYDROCHLORIDE]?
Answer: inhibition of growth at 10 µM (SF-295): 69%; inhibition of growth at 10 µM (MCF7): 72%

Question: How did the inhibition of growth at 10 µM (PC-3) turn out when `CO[C@@]12[C@H](COC(N)=O)C3=C(C(=O)C(C)=C(N)C3=O)N1C[C@@H]1N[C@@H]12` [MITOMYCIN] was run?
Answer: 53%

Question: What about the inhibition of growth at 10 µM (SF-295) of the same molecule?
Answer: 43%

Question: What does the source list for `CC(=O)O[C@H]1C(=O)[C@@]2(C)[C@H]([C@H](OC(=O)c3ccccc3)[C@]3(O)C[C@H](OC(=O)[C@H](O)[C@@H](NC(=O)c4ccccc4)c4ccccc4)C(C)=C1C3(C)C)[C@]1(OC(C)=O)CO[C@@H]1C[C@@H]2O` [PACLITAXEL]?
Answer: inhibition of growth at 10 µM (HOP-62): 42%; inhibition of growth at 10 µM (IGROV-1): 43%; inhibition of growth at 10 µM (A549): 50%
